According to paper doi:10.1101/2020.06.11.145995v1 (biorxiv, 2020):
Read-outs that look alike come from different tables or passages of the source. Each block holds one compound with its values, some of them ahead of it.

Columns and labels:
Assay in all cases: biochemical
LTK = LTK (Homo sapiens, UniProt P29376)
DYRK1B = DYRK1B (Homo sapiens, UniProt Q9Y463)
ABL1-nonphosphorylated = ABL1-nonphosphorylated (Homo sapiens, UniProt P00519)
[1] = target: ABL1(H396P)-phosphorylated (Homo sapiens, UniProt P00519, H396P)
[2] = target: ABL1(F317I)-nonphosphorylated (Homo sapiens, UniProt P00519, F317I)
STK33 = STK33 (Homo sapiens, UniProt Q9BYT3)
[3] = target: ABL1(T315I)-nonphosphorylated (Homo sapiens, UniProt P00519, T315I)
GSK3A = GSK3A (Homo sapiens, UniProt P49840)
Sequence of GSK3A (P49840 whole entry): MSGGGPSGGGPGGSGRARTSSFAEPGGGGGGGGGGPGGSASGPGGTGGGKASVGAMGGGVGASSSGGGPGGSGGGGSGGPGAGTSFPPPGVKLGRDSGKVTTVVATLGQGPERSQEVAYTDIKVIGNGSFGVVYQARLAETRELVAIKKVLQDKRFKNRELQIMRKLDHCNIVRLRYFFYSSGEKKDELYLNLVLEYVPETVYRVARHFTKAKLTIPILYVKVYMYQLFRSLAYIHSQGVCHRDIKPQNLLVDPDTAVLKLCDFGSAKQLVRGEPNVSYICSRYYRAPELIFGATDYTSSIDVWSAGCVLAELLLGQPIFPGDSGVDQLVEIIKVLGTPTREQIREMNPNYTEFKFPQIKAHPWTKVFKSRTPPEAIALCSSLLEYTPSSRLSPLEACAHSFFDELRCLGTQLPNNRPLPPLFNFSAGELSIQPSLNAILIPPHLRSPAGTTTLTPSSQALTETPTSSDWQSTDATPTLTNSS

GSK3B = GSK3B (Homo sapiens, UniProt P49841)
Sequence of GSK3B (P49841 whole entry): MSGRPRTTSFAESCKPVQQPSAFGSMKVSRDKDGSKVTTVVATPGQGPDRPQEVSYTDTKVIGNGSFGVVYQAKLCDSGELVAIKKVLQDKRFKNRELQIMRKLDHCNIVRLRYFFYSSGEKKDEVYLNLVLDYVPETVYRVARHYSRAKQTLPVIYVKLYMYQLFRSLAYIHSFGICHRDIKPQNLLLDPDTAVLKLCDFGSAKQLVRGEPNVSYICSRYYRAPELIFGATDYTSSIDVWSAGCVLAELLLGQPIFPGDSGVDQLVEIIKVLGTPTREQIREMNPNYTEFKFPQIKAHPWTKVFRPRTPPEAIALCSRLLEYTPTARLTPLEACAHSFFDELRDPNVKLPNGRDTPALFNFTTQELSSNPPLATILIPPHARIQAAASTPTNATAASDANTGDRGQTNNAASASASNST

DDR2 = DDR2 (Homo sapiens, UniProt Q16832)
Sequence of DDR2 (Q16832 whole entry): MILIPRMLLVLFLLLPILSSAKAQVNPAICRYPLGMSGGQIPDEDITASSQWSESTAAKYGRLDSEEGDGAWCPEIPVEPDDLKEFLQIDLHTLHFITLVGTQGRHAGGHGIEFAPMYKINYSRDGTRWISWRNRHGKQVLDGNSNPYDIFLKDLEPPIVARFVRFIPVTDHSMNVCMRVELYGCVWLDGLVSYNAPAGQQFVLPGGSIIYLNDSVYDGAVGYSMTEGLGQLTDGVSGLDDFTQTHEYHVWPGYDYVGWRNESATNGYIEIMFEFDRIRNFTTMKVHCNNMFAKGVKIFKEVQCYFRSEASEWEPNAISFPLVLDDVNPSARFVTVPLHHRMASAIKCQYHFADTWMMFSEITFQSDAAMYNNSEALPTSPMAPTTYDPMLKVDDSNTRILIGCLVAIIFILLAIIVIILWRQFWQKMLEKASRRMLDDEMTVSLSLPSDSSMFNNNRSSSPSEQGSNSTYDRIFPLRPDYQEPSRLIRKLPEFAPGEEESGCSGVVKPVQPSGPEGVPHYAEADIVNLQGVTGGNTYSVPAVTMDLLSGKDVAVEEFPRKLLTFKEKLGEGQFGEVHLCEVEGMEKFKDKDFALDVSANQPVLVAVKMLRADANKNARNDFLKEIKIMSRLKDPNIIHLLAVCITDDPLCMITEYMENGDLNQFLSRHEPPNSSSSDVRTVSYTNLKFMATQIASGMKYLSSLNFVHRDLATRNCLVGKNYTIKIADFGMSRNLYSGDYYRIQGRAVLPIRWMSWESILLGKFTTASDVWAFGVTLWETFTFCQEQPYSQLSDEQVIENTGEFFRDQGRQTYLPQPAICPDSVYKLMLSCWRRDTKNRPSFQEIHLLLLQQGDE

ACVRL1 = ACVRL1 (Homo sapiens, UniProt P37023)
FES = FES (Homo sapiens, UniProt P07332)
MRCKA = MRCKA (Homo sapiens, UniProt Q5VT25)
Sequence of MRCKA (Q5VT25 whole entry): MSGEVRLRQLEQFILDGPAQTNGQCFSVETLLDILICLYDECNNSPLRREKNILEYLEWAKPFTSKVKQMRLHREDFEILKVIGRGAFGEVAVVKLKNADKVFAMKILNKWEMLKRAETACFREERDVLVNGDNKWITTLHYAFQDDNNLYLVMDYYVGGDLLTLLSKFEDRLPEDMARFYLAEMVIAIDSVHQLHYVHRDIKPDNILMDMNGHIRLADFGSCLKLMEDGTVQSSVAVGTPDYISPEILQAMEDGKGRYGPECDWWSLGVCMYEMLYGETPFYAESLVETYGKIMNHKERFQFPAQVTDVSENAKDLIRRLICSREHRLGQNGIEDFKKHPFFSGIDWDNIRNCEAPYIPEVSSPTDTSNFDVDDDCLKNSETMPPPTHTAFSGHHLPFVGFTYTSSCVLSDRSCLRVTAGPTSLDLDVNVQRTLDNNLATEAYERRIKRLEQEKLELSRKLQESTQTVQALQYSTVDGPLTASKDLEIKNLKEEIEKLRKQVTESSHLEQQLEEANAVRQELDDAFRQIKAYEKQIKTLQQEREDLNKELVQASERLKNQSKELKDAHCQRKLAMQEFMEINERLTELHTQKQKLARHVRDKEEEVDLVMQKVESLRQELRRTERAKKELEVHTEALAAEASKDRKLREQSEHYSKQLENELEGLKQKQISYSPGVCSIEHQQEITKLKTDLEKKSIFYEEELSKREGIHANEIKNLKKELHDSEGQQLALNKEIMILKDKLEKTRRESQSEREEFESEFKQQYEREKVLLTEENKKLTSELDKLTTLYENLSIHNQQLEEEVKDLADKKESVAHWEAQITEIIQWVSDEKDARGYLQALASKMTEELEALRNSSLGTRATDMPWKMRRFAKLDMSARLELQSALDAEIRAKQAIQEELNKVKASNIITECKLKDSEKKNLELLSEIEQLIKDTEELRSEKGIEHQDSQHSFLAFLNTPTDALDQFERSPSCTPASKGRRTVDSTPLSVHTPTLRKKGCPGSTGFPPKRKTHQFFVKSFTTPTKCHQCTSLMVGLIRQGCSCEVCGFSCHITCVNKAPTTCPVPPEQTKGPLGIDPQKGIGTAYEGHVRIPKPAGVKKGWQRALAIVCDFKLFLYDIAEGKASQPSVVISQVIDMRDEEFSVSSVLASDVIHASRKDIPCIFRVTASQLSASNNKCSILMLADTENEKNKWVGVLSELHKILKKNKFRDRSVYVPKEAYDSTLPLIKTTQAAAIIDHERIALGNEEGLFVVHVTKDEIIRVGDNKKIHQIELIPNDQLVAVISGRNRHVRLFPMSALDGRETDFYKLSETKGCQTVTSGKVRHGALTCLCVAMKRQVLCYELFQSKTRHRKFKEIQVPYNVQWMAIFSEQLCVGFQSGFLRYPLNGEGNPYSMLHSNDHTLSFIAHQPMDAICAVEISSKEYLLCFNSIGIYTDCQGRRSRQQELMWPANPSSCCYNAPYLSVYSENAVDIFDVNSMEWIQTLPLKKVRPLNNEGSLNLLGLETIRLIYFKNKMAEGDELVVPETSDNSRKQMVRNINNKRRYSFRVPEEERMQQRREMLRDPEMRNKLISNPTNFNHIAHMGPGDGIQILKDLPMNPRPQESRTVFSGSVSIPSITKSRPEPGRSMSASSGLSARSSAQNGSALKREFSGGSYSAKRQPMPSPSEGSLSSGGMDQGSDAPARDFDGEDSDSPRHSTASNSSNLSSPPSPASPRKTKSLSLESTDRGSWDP

MARK2 = MARK2 (Homo sapiens, UniProt Q7KZI7)
MLK3 = MLK3 (Homo sapiens, UniProt Q16584)
MAP3K1 = MAP3K1 (Homo sapiens, UniProt Q13233)
MTOR = MTOR (Homo sapiens, UniProt P42345)
CDKL5 = CDKL5 (Homo sapiens, UniProt O76039)
Sequence of CDKL5 (O76039 whole entry): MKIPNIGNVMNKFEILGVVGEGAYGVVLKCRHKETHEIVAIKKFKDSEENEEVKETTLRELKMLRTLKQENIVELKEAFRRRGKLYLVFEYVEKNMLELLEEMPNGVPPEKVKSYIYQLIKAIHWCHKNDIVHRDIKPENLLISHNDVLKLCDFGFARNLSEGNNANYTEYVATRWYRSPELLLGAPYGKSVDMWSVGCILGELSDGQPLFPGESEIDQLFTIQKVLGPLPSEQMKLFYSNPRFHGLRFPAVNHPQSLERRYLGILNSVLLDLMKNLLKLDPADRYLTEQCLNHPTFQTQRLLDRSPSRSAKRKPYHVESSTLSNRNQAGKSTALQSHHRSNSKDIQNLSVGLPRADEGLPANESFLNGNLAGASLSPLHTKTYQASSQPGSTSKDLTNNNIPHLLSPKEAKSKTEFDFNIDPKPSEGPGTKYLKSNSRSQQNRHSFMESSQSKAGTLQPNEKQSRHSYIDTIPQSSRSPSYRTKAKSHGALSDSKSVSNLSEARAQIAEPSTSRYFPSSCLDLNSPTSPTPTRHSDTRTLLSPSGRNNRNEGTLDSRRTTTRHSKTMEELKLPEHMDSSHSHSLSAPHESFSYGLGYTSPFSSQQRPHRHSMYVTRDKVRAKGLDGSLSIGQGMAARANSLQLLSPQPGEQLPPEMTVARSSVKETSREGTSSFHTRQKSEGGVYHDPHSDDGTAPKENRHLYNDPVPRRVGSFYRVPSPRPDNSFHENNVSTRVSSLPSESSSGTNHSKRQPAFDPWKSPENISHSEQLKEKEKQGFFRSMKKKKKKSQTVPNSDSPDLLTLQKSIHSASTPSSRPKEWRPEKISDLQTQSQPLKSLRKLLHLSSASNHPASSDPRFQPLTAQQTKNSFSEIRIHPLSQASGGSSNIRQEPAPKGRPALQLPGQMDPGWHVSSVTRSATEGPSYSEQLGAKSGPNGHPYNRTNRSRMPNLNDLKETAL

EGFR(G719C) = EGFR(G719C) (Homo sapiens, UniProt P00533, G719C)
MEK4 = MEK4 (Homo sapiens, UniProt P45985)
Sequence of MEK4 (P45985 whole entry): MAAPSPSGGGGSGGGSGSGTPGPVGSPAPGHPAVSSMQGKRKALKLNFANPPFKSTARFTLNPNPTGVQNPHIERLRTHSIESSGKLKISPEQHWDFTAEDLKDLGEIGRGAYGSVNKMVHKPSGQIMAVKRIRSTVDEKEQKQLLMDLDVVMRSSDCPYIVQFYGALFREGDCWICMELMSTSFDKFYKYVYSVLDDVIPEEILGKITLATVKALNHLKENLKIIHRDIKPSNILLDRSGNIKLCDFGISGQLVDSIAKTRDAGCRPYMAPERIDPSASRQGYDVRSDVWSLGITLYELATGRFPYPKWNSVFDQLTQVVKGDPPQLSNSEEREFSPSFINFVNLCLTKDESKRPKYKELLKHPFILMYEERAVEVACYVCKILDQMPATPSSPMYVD

BRSK1 = BRSK1 (Homo sapiens, UniProt Q8TDC3)
CSNK2A2 = CSNK2A2 (Homo sapiens, UniProt P19784)
GCN2(Kin.Dom.2,S808G) = GCN2(Kin.Dom.2,S808G) (Homo sapiens, UniProt Q9P2K8, S808G)
[4] = target: ABL1(T315I)-phosphorylated (Homo sapiens, UniProt P00519, T315I)
[5] = target: ABL1(Q252H)-phosphorylated (Homo sapiens, UniProt P00519, Q252H)
[6] = target: ABL1(F317L)-nonphosphorylated (Homo sapiens, UniProt P00519, F317L)
KIT(V559D,V654A) = KIT(V559D,V654A) (Homo sapiens, UniProt P10721, V559D/V654A)
[7] = target: JAK3(JH1domain-catalytic) (Homo sapiens, UniProt P52333)
[8] = read-out: CPT-1-70-1 (1uM) % control
[9] = read-out: HYJ-2-002-1 (1uM) % control

SMILES: CN1CCN(c2ccc(Nc3nc(Oc4ccc(NC(=O)CCl)cc4)c4cc[nH]c4n3)cc2)CC1 [CPT1-70-1]
- remaining activity at 1 µM (LTK; [8]): 100%
- remaining activity at 1 µM (DYRK1B; [8]): 79%
- remaining activity at 1 µM (ABL1-nonphosphorylated; [8]): 25%
- remaining activity at 1 µM [1, 8]: 100%
- remaining activity at 1 µM [2, 8]: 100%
- remaining activity at 1 µM (STK33; read-out: CPT-1-70-1 (1μM) % control): 10%
- remaining activity at 1 µM [3, 8]: 46%
- remaining activity at 1 µM (GSK3A; [8]): 100%
- remaining activity at 1 µM (GSK3B; [8]): 98%
- remaining activity at 1 µM (DDR2; [8]): 100%
- remaining activity at 1 µM (ACVRL1; [8]): 100%
- remaining activity at 1 µM (FES; [8]): 73%
- remaining activity at 1 µM (MRCKA; [8]): 100%
- remaining activity at 1 µM (MARK2; [8]): 10%
- remaining activity at 1 µM (MLK3; [8]): 91%
- remaining activity at 1 µM (MAP3K1; [8]): 100%
- remaining activity at 1 µM (MTOR; [8]): 66%
- remaining activity at 1 µM (CDKL5; [8]): 100%
- remaining activity at 1 µM (EGFR(G719C); [8]): 8%
- remaining activity at 1 µM (MEK4; [8]): 35%
- remaining activity at 1 µM (BRSK1; [8]): 100%
- remaining activity at 1 µM (CSNK2A2; [8]): 28%
- remaining activity at 1 µM (GCN2(Kin.Dom.2,S808G); [8]): 13%
- remaining activity at 1 µM [4, 8]: 19%
- remaining activity at 1 µM [5, 8]: 100%
- remaining activity at 1 µM [6, 8]: 100%
- remaining activity at 1 µM (KIT(V559D,V654A); [8]): 100%
- remaining activity at 1 µM [7, 8]: 0%

- remaining activity at 1 µM (LTK; [9]): 89%
- remaining activity at 1 µM (DYRK1B; [9]): 76%
- remaining activity at 1 µM (ABL1-nonphosphorylated; [9]): 0.05%
- remaining activity at 1 µM [1, 9]: 0.1%
- remaining activity at 1 µM [2, 9]: 0%
- remaining activity at 1 µM (STK33; read-out: HYJ-2-002-1 (1μM) % control): 66%
- remaining activity at 1 µM [3, 9]: 9%
- remaining activity at 1 µM (GSK3A; [9]): 78%
- remaining activity at 1 µM (GSK3B; [9]): 88%
- remaining activity at 1 µM (DDR2; [9]): 0.05%
- remaining activity at 1 µM (ACVRL1; [9]): 100%
- remaining activity at 1 µM (FES; [9]): 13%
- remaining activity at 1 µM (MRCKA; [9]): 100%
- remaining activity at 1 µM (MARK2; [9]): 64%
- remaining activity at 1 µM (MLK3; [9]): 53%
- remaining activity at 1 µM (MAP3K1; [9]): 83%
- remaining activity at 1 µM (MTOR; [9]): 93%
- remaining activity at 1 µM (CDKL5; [9]): 100%
- remaining activity at 1 µM (EGFR(G719C); [9]): 0.75%
- remaining activity at 1 µM (MEK4; [9]): 100%
- remaining activity at 1 µM (BRSK1; [9]): 97%
- remaining activity at 1 µM (CSNK2A2; [9]): 100%
- remaining activity at 1 µM (GCN2(Kin.Dom.2,S808G); [9]): 14%
- remaining activity at 1 µM [4, 9]: 0.75%
- remaining activity at 1 µM [5, 9]: 1%
- remaining activity at 1 µM [6, 9]: 0%
- remaining activity at 1 µM (KIT(V559D,V654A); [9]): 28%
- remaining activity at 1 µM [7, 9]: 2.4%
SMILES: CCN1CCN(Cc2ccc(NC(=O)c3ccc(C)c(CCc4cnc5[nH]ccc5c4OC)c3)cc2C(F)(F)F)CC1 [HYJ-2-002-1]
